# pEC50, pIC50: −log10 of the molar value. Active and inactive are the calls of the source.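 Rule for the calls: active = compounds giving half or more protection of infected cells from virus-caused growth loss, again on retest; inactive = the rest.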
# Tested on: CEM cells HIV-1 protection, formazan growth assay
# Assay: NCI AIDS Antiviral Assay
# Details: for pIC50: measured here: growth of uninfected CEM cells
# How it was run: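 CEM (human) cells, HIV-1 infected vs uninfected, 5-point dosing, formazan growth read-out. Retest threshold 50% protection.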
SMILES,outcome,pEC50,pIC50
ClCC[N+]12CC[N+](CCCl)(CC1)C2,inactive,,
O=c1c(NCc2ccccc2)c(C2(c3ccccc3F)SCCCS2)c1=O,,< 3.70,3.82
Cc1nn(-c2ccccc2)c(=O)n2c1nc1ccccc12,,< 4.03,4.23
O=[N+]([O-])c1cccc([N+](=O)[O-])c1S(=O)(=O)c1ccccc1,,< 4.21,5.20
Oc1cccc2c1N1CCN2CC1,,< 3.70,< 3.70
CN1C(=O)C2C3C=C4c5ccccc5N(c5ccccc5)C4(C2C1=O)[C@H]1C(=O)N(C)C(=O)[C@@H]31 (stereo not given in full),,< 4.79,< 4.79
COC(=O)c1csc(-c2csc(CCNC(=O)OC(C)(C)C)n2)n1,,< 3.45,4.22
N#Cc1nc(NC(=O)c2ccccc2)sc1N,,< 3.70,4.82
COc1cc2cccc(OC)c(=O)c2c(O)c1OC,inactive,,
COc1ccc(C(=O)N2CCN(c3ccc4c(c3)OCC(=O)N4)CC2)cc1,,< 3.70,< 3.70
CCCCCCCCCCCCSC(=S)c1c(C)[nH]n(-c2ccccc2)c1=O,,< 4.37,4.80
CC(=O)OCCOCn1c2ccccc2c2c3c(c4c5ccccc5n(COCCOC(C)=O)c4c21)C(=O)N(Cc1ccccc1)C3=O,inactive,,
N#CSc1nc[nH]c1C(N)=O,,< 3.70,5.00
O=C1NC(Cc2ccc(O)cc2)C(=O)N2CCCC12 (stereo not given),,< 3.02,< 3.02
CCOC(=O)C1=NN(c2ccccc2)C(=O)/C1=C\N1C(=O)/C(=C/c2cccc(OC)c2O)SC1=S,,< 4.00,4.27
Cc1c2ccccc2nc(CSC#N)[n+]1[O-],,< 3.70,4.44
N#Cc1cccc(CSc2ncnc3nc[nH]c23)c1,,< 3.70,4.09
O=C1c2ccccc2C2(Br)C(=O)c3ccccc3C12 (stereo not given),inactive,,
Cc1cc2c(c(C(=O)O)c1C)-c1cccc(F)c1C2=O,inactive,,
O=C(/C=C/c1cc(O)ccc1O)OCCc1ccccc1,,< 4.34,5.21
Cc1nc2ccccc2c(=O)n1-c1ccccc1Cl,,< 3.74,3.83
Cc1ccc(C)c(N2C(=O)C(=O)C(c3nc4ccccc4s3)C(=O)C2=O)c1,inactive,,

SMILES,outcome,pEC50,pIC50
O=C(O)c1ccccc1N=NNc1ccc(/C=C/c2ccc(N=NNc3ccccc3C(=O)O)cc2S(=O)(=O)O)c(S(=O)(=O)O)c1,,5.20,3.41
CC1(C)N=C(N)N=C(N)N1c1ccc(CCCCc2ccc(S(=O)(=O)F)cc2Cl)c(Cl)c1,,< 3.97,5.85
[C-]#[O+].[C-]#[O+].[C-]#[O+].[Mo].c1ccc([PH+](CC[As](c2ccccc2)c2ccccc2)CC[As](c2ccccc2)c2ccccc2)cc1,inactive,,
CCOC(=O)C1=C(O)C(=O)NC(C(=O)OCC)=C(c2ccccc2)C1,,< 4.30,< 4.30
CC(O)(P(=O)(O)O)P(=O)(O)OCC(O)CN1CCOCC1 (stereo not given),,< 4.00,< 4.00
COc1ccc2nc3ccc(OC)cc3c(S(=O)(=O)Cc3ccc([N+](=O)[O-])cc3)c2c1,,< 3.70,< 3.70
Nc1nc(N)c(-c2ccccc2)c(C(=O)Nc2ccccc2)n1,,< 3.39,< 3.39
COC(=O)c1cc(S(=O)(=O)NC2=NCC(C)NN2)c(S)cc1Cl (stereo not given),,< 3.70,4.77
CC(=O)O[C@H]1[C@H](OC(C)=O)[C@@H](CN=[N+]=[N-])OCO[C@@H]1CN=[N+]=[N-],inactive,,
CCC1(O)CC(CCN(Cc2ccccc2)C(=O)OCc2ccccc2)C(OCc2ccccc2)C1O (stereo not given),,< 3.70,5.04
COC1(O)C(=O)c2ccccc2OC1(OC)c1ccccc1 (stereo not given),,< 3.70,3.95
O=c1oc2ccccc2c(O)c1C(C/C(CCN1CCCC1)=N\Nc1ccccc1)c1ccccc1 (stereo not given),,< 4.01,4.38
CCOC(=O)NP(=O)(N1CC1(C)C)N1CC1(C)C (stereo not given),,3.91,< 3.70
CN1CC=C(c2cccn2C)CC1,,< 3.70,3.88
CCOC(=O)C(=C=Cc1cccs1)C(=O)c1ccccc1,,< 3.92,4.27
CCOC(=O)c1nc(SC)sc1NC(=O)c1ccc(OC)cc1,,3.79,< 3.70
CC1=C(C(=O)Nc2cccc3c2C(=O)NC3=O)CC(C(=O)Nc2cccc3c2C(=O)NC3=O)=C(C)N1,,< 3.70,< 3.70
CC1(Br)C2c3ccccc3C(c3ccccc32)C1(C)C(Cl)(Cl)Cl (stereo not given),,< 4.78,< 4.78
N#CC1=CNc2sccc2S1(=O)=O,,< 3.70,< 3.70
CCC(C)NC(=O)/C(=C\c1ccccc1O)NC(=O)c1ccccc1 (stereo not given),,< 3.70,< 3.70
CC(=O)OC1O[C@@H](C(C)(C)O)CC[C@@H]1[C@H]1CC[C@@]2(C)C3=C(CC[C@]12C)[C@@]1(C)C[C@@H](OC(=O)CC(C)(O)CC(=O)O)[C@H](OC(C)=O)C(C)(C)C1CC3 (stereo not given in full),,< 3.70,3.98
Cn1cnc([N+](=O)[O-])c1Sc1nc2cc(Cl)c(F)cc2[nH]1,,< 5.08,5.51

# Source: PubChem BioAssay AID179 (DTP/NCI, 2004)
